Source: US10987349B2, “Antitumor agent and bromodomain inhibitor” (FUJIFILM Corporation, priority 2016, dated 2021)

Assays:
[1] = tested on: NCI-H69; assay: Cell growth test (Cell Titer Blue) NCI-H69; type: cell-based; conditions: Homo sapiens, 72 h, NCI-H69, Lung cancer, 3 days
Protocol: (§1) Moreover, the compound of Example 14 was subjected to a cell growth test using various types of cell lines.
(§2) All cell lines other than the below-noticed cells were each seeded in a well plate, in which an RPMI-1640 medium supplemented with penicillin/streptomycin and FBS with a final concentration of 10% was placed. The human prostate cancer cell line VCaP (ATCC) was seeded in a well plate, in which DMEM medium supplemented with penicillin/streptomycin and FBS with a final concentration of 10% was placed. […] Thereafter, using Enspire Multimode Plate Reader (PerkinElmer), the amount of fluorescence at an excitation wavelength of 531 nm and a fluorescence wavelength of 615 nm was measured. Since the amount of fluorescence is in proportion to the concentration of a florescent product resorufin that is converted from resazurin as a redox dye by living cells, the amount of fluorescence was used as an indicator of the number of living cells. The growth inhibition percentage of the test compound in each concentration was calculated according to the following equation. Growth inhibition percentage (%)=(amount of fluorescence in test compound−added well)/(amount of fluorescence in DMSO−added well)×100 […]

[2] = tested on: PANC-1; assay: Cell growth test (Cell Titer Blue) PANC-1; type: cell-based; conditions: Homo sapiens, 72 h, PANC-1, Pancreatic cancer, 3 days
Protocol: as §1, §2

GI50 [1]: 0.975 µM
GI50 [2]: 2.98 µM
SMILES: CCn1c(=O)cc(C2CCN(C)CC2)c2cc(C(=O)N(C)c3ccc(C)cc3)ccc21 [Example 14, 1-Ethyl-N-methyl-N-(4-methylphenyl)-4-(1-methylpiperidin-4-yl)-2-oxo-1,2-dihydroquinoline-6-carboxamide]
